Results as given in US6797255B1, “Methods and compositions for enhancing magnetic resonance imaging” (Mallinckrodt Inc., priority 1985, dated 2004).

How the values were obtained:
[1] = Solubility of the complex in water; type: physicochemical
Description: (§1) The complex, dihydrogen bis(N-[N′-(2,6-diisopropylphenyl)carbamoylmethyl]iminodiaceto)manganese(II) hydrate, was thus isolated as the hydrated species. The solubility of the complex in water was determined to be approximately 0.1% w/v. The relaxation parameters T1 and T2 of a 10-^−3M solution of the complex in a 90 MHz NMR experiment were determined to be 0.107 sec. and 0.007 sec. respectively. The T1 and T2 values for water are 2.51 sec. and 0.150 sec., respectively.
(§2) The relaxation parameters T1 and T2 of a 10^−3M solution of the complex in a 90 MHz NMR experiment were determined to be 126 milliseconds and 1.5 milliseconds, respectively.

[2] = Relaxation parameters T1 and T2 of a 10^−3M solution in a 90 MHz NMR experiment; type: physicochemical; conditions: 10-^−3M solution
Description: as §1, §2

[3] = Toxicity profile of the gadolinium complex; conditions: in vivo
liver = test: T1 and T2 lowering effects of the gadolinium complex in the liver; conditions: in vivo

CC(C)c1cccc(C(C)C)c1NC(=O)CN(CC(=O)[O-])CC(=O)O.CC(C)c1cccc(C(C)C)c1NC(=O)CN(CC(=O)[O-])CC(=O)O.O.[Mn+2] [Example 1]
solubility of the complex in water [1]: approximately 0.1 % w/v | relaxation parameter T1 [2]: 0.107 s | relaxation parameter T2 [2]: 0.007 s

Cc1cccc(C)c1NC(=O)CN(CC(=O)[O-])CC(=O)O.Cc1cccc(C)c1NC(=O)CN(CC(=O)[O-])CC(=O)[O-].O.O.[Gd+3] [hydrogen bis(N-[N′-(2,6-dimethylphenyl)carbamoylmethyl]iminodiaceto)gadolinium(III) dihydrate]
LD50 [3]: about 0.2 mmol/kg | toxicity profile [3]: persistent, delayed toxicity | T1 and T2 lowering effects in the liver (liver): relatively poor T1 and T2 lowering effects in the liver
